Reference: patent US9745335B2 (Blirt S.A., priority 2012, dated 2017)
≈ marks a conversion by molar mass, not a printed value. Where two headings read alike, the source gives them in different places.

Experiments:
LLC-PK1 cells = assay: cytotoxic activity against mammalian cells in tissue culture (MTT); type: cell-based, pig
Description: (§1) All media contained 100 μg/ml of penicillin G and streptomycin. 24-wells microplates containing appropriate medium were inoculated with the cells in amount of 1.2×10^4 cells/well and allowed to stand overnight. Next, tested compounds as solution in dimethylsulfoxide (DMSO) were added in volume of 10 μl (serial 2× dilutions). To control well 10 μl of DMSO was added. Microplates with cell suspensions were incubated for 120 h at temperature 37° C. at atmosphere of 95%/5% CO2. After incubation, to all wells 200 μl of solution of 3-(4,5-dimethyltiazole-2-yl)-2,5-diphenylotetrazole bromide (MTT) in PBS (4 mg/ml) was added and plates were further incubated for 4 h at 37° C. Next, to dissolve crystals of formazane 1 ml of DMSO was added and absorption of solutions was measured at the wavelength λ=540 nm (A540), using a microplates reader (Victor^3, Perkin-Wallac). […] From these graphs IC50 values were read, that is concentration of tested compound in the presence at which A540 value is half of A540 value measured in the control sample.

HepG2 cells = assay: as above; type: cell-based, human
Description: as §1

CCRF-CEM cells = assay: as above; type: cell-based, human
Description: as §1

Candida krusei DSM 6128 = assay: antifungal activity in vitro, serial dilution in RPMI 1640; type: cell-based
Description: (§2) For the determination of antifungal activity in vitro we used method of serial dilution in buffered medium RPMI 1640, pH 7.0, in a 96-wells microplates, according to the standard procedure (National Committee for Clinical Laboratory Standards. Reference method for broth dilution antifungal susceptibility testing of yeast, approved standard, 2nd ed. M27-A2 vol. 22 Wayne, Pa., 2002). The optical density of cells suspension was measured using a microplates reader (Victor^3, Perkin-Elmer) at the wavelength λ=531 nm (A531). On the basis of obtained results the diagrams of relation between A531 values and concentration of examined compound were made.

[1] = test system: Candida glabrata DSM 11226; assay: as above; type: cell-based
Description: as §2

[2] = test system: Candida tropicalis KKP 334; assay: as above; type: cell-based
Description: as §2

[3] = test system: Candida albicans ATCC 10231; assay: as above; type: cell-based
Description: as §2

[4] = test system: Candida lusitaniae DSM 70102; assay: as above; type: cell-based
Description: as §2

[5] = test system: Saccharomyces cerevisiae ATCC 9763; assay: as above; type: cell-based; details: RPMI 1640, pH 7.0; for Antifungal activity IC50: Saccharomyces cerevisiae ATCC 9763 (first head over MIC and IC50); for Antifungal activity MIC: Saccharomyces cerevisiae ATCC 9763
Description: as §2

Human erythrocytes = assay: hemotoxicity determination (hemolytic activity); type: cell-based
Description: The hemotoxicity determination was carried out by the serial dilutions method, according to the procedure described earlier (Slisz, M., et al., E., J Antibiot 57: 669-678 (2004). Human erythrocytes were suspended in the solution of saline to obtain a cell density of suspension 2×10^7/ml. Suitable amounts of diluted solutions of compounds were added to the cell suspension in tubes and were incubated at 37° C. for 30 minutes and then centrifuged (1700×g, 10 min, 4° C.). The concentration of hemoglobin in supernatant after centrifugation of erythrocytes suspension were determined by measuring the absorbance at wavelength λ=540 nm (A540). The maximum level of hemolysis was obtained after incubation of cells suspension in the presence of 0.1% Tritone X-100 (control sample). […] From these graphs, the EH50 values were read which are the interpolated concentrations of compound, for which the A540 value is exactly 50% of the A540 value measured for the control sample.

[6] = human erythrocytes, 37° C., 30 minutes

SMILES | IC50 (cytotoxic activity) (LLC-PK1 cells) [mg/L] | IC50 (cytotoxic activity) (HepG2 cells) [mg/L] | IC50 (cytotoxic activity) (CCRF-CEM cells) [mg/L] | Antifungal activity MIC (Candida krusei DSM 6128) [mg/L] | Antifungal activity MIC [1] [mg/L] | Antifungal activity MIC [2] [mg/L] | Antifungal activity MIC [3] [mg/L] | Antifungal activity MIC [4] [mg/L] | Antifungal activity IC50 [5] [mg/L] | Antifungal activity MIC [5] [mg/L] | Hemotoxi EH50 (Human erythrocytes) [µg/mL] | Hemotoxi EH50 (Human erythrocytes; [6]) [µg/mL]
CCCN(CC1(O)OCC(O)C(O)C1O)C1C(O)C(C)OC(OC2C=CC=CC=CC=CC=CC=CC=CC(C)C(O)C(C)C(C)OC(=O)CC(O)CC(O)CCC(O)C(O)CC(O)CC3(O)CC(O)C(C(=O)O)C(C2)O3)C1O (stereo not drawn) [Compound A16, N-fructosyl-N-n-propylamphotericin B] | >100 | 73.3 ± 1.20 (≈ 65 µM) | 50.1 ± 1.3 (≈ 44.4 µM) | – | – | – | – | – | – | – | – | –
C[C@@H]1[C@H](O)[C@@H](C)/C=C/C=C/C=C/C=C/C=C/C=C/C=C/[C@H](O[C@@H]2O[C@H](C)[C@@H](O)[C@H](NC(=S)NCCN3CCCC3)[C@@H]2O)C[C@@H]2O[C@](O)(C[C@@H](O)C[C@@H](O)[C@H](O)CC[C@@H](O)C[C@@H](O)CC(=O)O[C@H]1C)C[C@H](O)[C@H]2C(=O)O [Compound A27, N-{[3-(2-pyrrolidin-1-yl)ethyl]thioureidyl}amphotericin B] | >100 | >100 | >100 | 4 | 4 | 2 | 2 | 2 | 0.75 | 2 | >100 | –
CCN(CC)CCNC(=S)N[C@@H]1[C@H](O)[C@H](O[C@H]2/C=C/C=C/C=C/C=C/C=C/C=C/C=C/[C@H](C)[C@@H](O)[C@@H](C)[C@H](C)OC(=O)C[C@H](O)C[C@H](O)CC[C@@H](O)[C@H](O)C[C@H](O)C[C@]3(O)C[C@H](O)[C@@H](C(=O)O)[C@H](C2)O3)O[C@H](C)[C@H]1O [Compound A25, N-{3-[2-(N,N-diethylamino)ethyl]thioureidyl}amphotericin B] | >100 | >100 | >100 | 4 | 4 | 2 | 2 | 2 | 0.85 | 2 | >100 | –
C[C@@H]1[C@H](O)[C@@H](C)/C=C/C=C/C=C/C=C/C=C/C=C/C=C/[C@H](O[C@@H]2O[C@H](C)[C@@H](O)[C@H](NCc3ccc(-c4ccccc4)cc3)[C@@H]2O)C[C@@H]2O[C@](O)(C[C@@H](O)C[C@@H](O)[C@H](O)CC[C@@H](O)C[C@@H](O)CC(=O)O[C@H]1C)C[C@H](O)[C@H]2C(=O)O [Compound A20, N-[(4-biphenyl)methyl]amphotericin B] | – | – | – | 4 | 4 | 4 | 4 | 4 | 1.63 | 4 | – | >100
C[C@@H]1[C@H](O)[C@@H](C)/C=C/C=C/C=C/C=C/C=C/C=C/C=C/[C@H](O[C@@H]2O[C@H](C)[C@@H](O)[C@H](NC(=O)C(N)Cc3ccccc3F)[C@@H]2O)C[C@@H]2O[C@](O)(C[C@@H](O)C[C@@H](O)[C@H](O)CC[C@@H](O)C[C@@H](O)CC(=O)O[C@H]1C)C[C@H](O)[C@H]2C(=O)O (stereo partly drawn) [Compound A38, N-o-fluorophenylalanylamphotericin B] | – | – | – | 4 | 4 | 4 | 2 | 2 | 1.92 | 4 | – | >100
C[C@@H]1[C@H](O)[C@@H](C)/C=C/C=C/C=C/C=C/C=C/C=C/C=C/[C@H](O[C@@H]2O[C@H](C)[C@@H](O)[C@H](NCc3ccc(C(C)(C)C)cc3)[C@@H]2O)C[C@@H]2O[C@](O)(C[C@@H](O)C[C@@H](O)[C@H](O)CC[C@@H](O)C[C@@H](O)CC(=O)O[C@H]1C)C[C@H](O)[C@H]2C(=O)O [Compound A21, N-(4-tert-butylbenzyl)amphotericin B] | – | – | – | 4 | 4 | 4 | 4 | 2 | 1.58 | 4 | >100 | –
C[C@@H]1[C@H](O)[C@@H](C)/C=C/C=C/C=C/C=C/C=C/C=C/C=C/[C@H](O[C@@H]2O[C@H](C)[C@@H](O)[C@H](NC3CC(=O)N(c4ccccc4C(C)(C)C)C3=O)[C@@H]2O)C[C@@H]2O[C@](O)(C[C@@H](O)C[C@@H](O)[C@H](O)CC[C@@H](O)C[C@@H](O)CC(=O)O[C@H]1C)C[C@H](O)[C@H]2C(=O)O (stereo partly drawn) [Compound A4, N—[N-(2-tert-butylophenyl)succinimidyl]amphotericin B] | – | – | – | 8 | 8 | 4 | 4 | 4 | 3.11 | 4 | >100 | –
C[C@@H]1[C@H](O)[C@@H](C)/C=C/C=C/C=C/C=C/C=C/C=C/C=C/[C@H](O[C@@H]2O[C@H](C)[C@@H](O)[C@H](NC3CC(=O)N(Cc4ccccc4)C3=O)[C@@H]2O)C[C@@H]2O[C@](O)(C[C@@H](O)C[C@@H](O)[C@H](O)CC[C@@H](O)C[C@@H](O)CC(=O)O[C@H]1C)C[C@H](O)[C@H]2C(=O)O (stereo partly drawn) [Compound A2, N—(N-benzylsuccinimidyl)amphotericin B] | – | – | – | 8 | 8 | 4 | 4 | 2 | 2.22 | 4 | >100 | –
C[C@@H]1[C@H](O)[C@@H](C)/C=C/C=C/C=C/C=C/C=C/C=C/C=C/[C@H](O[C@@H]2O[C@H](C)[C@@H](O)[C@H](NC3CC(=O)N(c4ccc(Br)cc4)C3=O)[C@@H]2O)C[C@@H]2O[C@](O)(C[C@@H](O)C[C@@H](O)[C@H](O)CC[C@@H](O)C[C@@H](O)CC(=O)O[C@H]1C)C[C@H](O)[C@H]2C(=O)O (stereo partly drawn) [Compound A3, N—[N-(4-bromophenyl)succinimidyl]amphotericin B] | – | – | – | 8 | 8 | 4 | 4 | 4 | 2.85 | 4 | >100 | –
C[C@@H]1[C@H](O)[C@@H](C)/C=C/C=C/C=C/C=C/C=C/C=C/C=C/[C@H](O[C@@H]2O[C@H](C)[C@@H](O)[C@H](NC(=S)Nc3cccnc3)[C@@H]2O)C[C@@H]2O[C@](O)(C[C@@H](O)C[C@@H](O)[C@H](O)CC[C@@H](O)C[C@@H](O)CC(=O)O[C@H]1C)C[C@H](O)[C@H]2C(=O)O [Compound A26, N-[3-(pyridin-3-yl)thioureidyl]amphotericin B] | – | – | – | 8 | 8 | 4 | 4 | 4 | 2.55 | 4 | >100 | –
